The record followed here is ChEMBL document CHEMBL5360641, “4'-Ethynyl-2'-deoxy-2'-β-fluoro-2-fluoroadenosine: A Highly Potent and Orally Available Clinical Candidate for the Treatment of HIV-1 Infection” (J Med Chem, 2023).

Data set [1] can be described thus: AUC (0 to t) in male Sprague-Dawley rat at 10 mg/kg, IG measured at 24 hrs LC-MS/MS analysis. It is filed as ADME, organism-based. The following applies: in vivo, po. The arrangement: dose 10 mg/kg, time 24 hrs, route ig.
Data set [2] relates to Human immunodeficiency virus 1. The experiment in a line: Antiviral activity against HIV1 IIIB infected in human MT4 cells assessed as inhibition of viral replication incubated for 3 to 7 days by MTT analysis. The following applies: Human immunodeficiency virus 1, IIIB. Format: functional, organism-based.
A short description of data set [3]: AUC (0 to t) in Sprague-Dawley rat at 2.5 mg/kg, IG measured upto 24 hrs by LC-MS/MS analysis. Format: ADME, organism-based. Also on record: time < 24 hrs, dose 2.5 mg/kg, route ig. The following applies: in vivo, po.
Data set [4] is described as follows: Cmax in Sprague-Dawley rat at 2.5 mg/kg, IG measured upto 24 hrs by LC-MS/MS analysis. It is filed as ADME, organism-based. The following applies: in vivo, po. Also on record: time < 24 hrs, dose 2.5 mg/kg, route ig.
A short description of data set [5]: AUC (0 to t) in male Sprague-Dawley rat at 100 mg/kg, IG measured at 0.5 hrs LC-MS/MS analysis. It is filed as ADME, organism-based. The arrangement: dose 100 mg/kg, time 0.5 hrs, route ig. The following applies: in vivo, po.
Data set [6] has as its system Human immunodeficiency virus 1. The data set can be described thus: Antiviral activity against HIV1 TC-1 infected in human PBMC assessed as inhibition of viral replication by measuring reduction in p24 antigen level incubated for 3 to 7 days by ELISA analysis. It is filed as functional, organism-based. The following applies: Human immunodeficiency virus 1, TC-1, PBMC. On the technique in general: An ELISA detects its analyte on a solid surface through an enzyme-linked reagent.

A short description of data set [7]: Selectivity index, ratio of CC50 for cytotoxicity against HEK293T cells assessed as reduction in cell viability by MTT assay to EC50 for antiviral activity against HIV1 VSV-G pseudotyped virus infected in human HEK293T cells assessed as inhibition of viral growth. It is filed as toxicity, cell-based. The following applies: read-out: Ratio CC50/EC50. A general note: Tetrazolium dyes change colour on reduction, which living cells bring about.

A short description of data set [8]: AUC (0 to t) in male Sprague-Dawley rat at 30 mg/kg, IG measured at 0.5 hrs LC-MS/MS analysis. It is filed as ADME, organism-based. The arrangement: dose 30 mg/kg, time 0.5 hrs, route ig. The following applies: in vivo, po.
A short description of data set [9]: Apparent oral clearance in Sprague-Dawley rat at 10 mg/kg, IG measured upto 24 hrs by LC-MS/MS analysis. Format: ADME, organism-based. The following applies: in vivo.
The nature of data set [10]: Acute toxicity in Sprague-Dawley rat assessed as effect on heart damage at 500 to 2000 mg/kg, IG measured on day 15. It is filed as organism-based. The following applies: in vivo, po, 360 h, dose 500-2000 mg/kg, time 15 day.
The nature of data set [11]: Half life in Sprague-Dawley rat at 10 mg/kg, IG measured upto 24 hrs by LC-MS/MS analysis. The following applies: in vivo, po. It is filed as ADME, organism-based.
Data set [12] in a line: Bioavailability in Sprague-Dawley rat at 2.5 mg/kg, IG measured upto 24 hrs by LC-MS/MS analysis. It is filed as ADME, organism-based. The following applies: in vivo, po.
In data set [13] the test system is Human immunodeficiency virus 1. The experiment in a line: Antiviral activity against HIV1 VSV-G pseudotyped virus infected in human HEK293T cells assessed as inhibition of viral growth preincubated for 3 hrs followed by washout and further incubated with compound for 72 hrs by luciferase assay. The following applies: Human immunodeficiency virus 1, HEK-293T. Format: functional, organism-based.

Data set [14] in a line: AUC (0 to t) in Sprague-Dawley rat at 5 mg/kg, iv measured upto 24 hrs by LC-MS/MS analysis. Also on record: dose 5 mg/kg, time < 24 hrs, route iv. The following applies: in vivo. Format: ADME, organism-based.
Data set [15] relates to Human immunodeficiency virus 1. The experiment in a line: Antiviral activity against HIV-1 harboring protease V82F/[…] double mutant infected in human C8166 cells assessed as inhibition of viral replication by measuring reduction in p24 antigen level incubated for 3 to 7 days by ELISA analysis. The following applies: Human immunodeficiency virus 1, C8166. It is filed as functional, organism-based.

Data set [16] can be described thus: Toxicity in Sprague-Dawley rat assessed as effect on blood biochemistry at 10 to 30 mg/kg, po administered once daily for 4 weeks and measured after 24 hrs post last dose. Format: organism-based. The following applies: in vivo, 696 h, dose 10-30 mg/kg.
The nature of data set [17]: Toxicity in Sprague-Dawley rat assessed as death at 10 to 30 mg/kg, po administered once daily for 4 weeks and measured after 24 hrs post last dose. Format: organism-based. The following applies: in vivo, 696 h, dose 10-30 mg/kg.
Data set [18] is described as follows: AUC (0 to t) in female Sprague-Dawley rat at 100 mg/kg, IG measured at 24 hrs LC-MS/MS analysis. The following applies: in vivo, po. It is filed as ADME, organism-based. Also on record: time 24 hrs, dose 100 mg/kg, route ig.
Data set [19] in a line: Acute toxicity in Sprague-Dawley rat assessed as effect on kidney damage at 500 to 2000 mg/kg, IG measured on day 15. The following applies: in vivo, po, 360 h, dose 500-2000 mg/kg, time 15 day. Format: organism-based.
The nature of data set [20]: Apparent […] clearance in Sprague-Dawley rat at 5 mg/kg, iv measured upto 24 hrs by LC-MS/MS analysis. The following applies: in vivo. It is filed as ADME, organism-based.
Data set [21] can be described thus: AUC (0 to t) in female Sprague-Dawley rat at 30 mg/kg, IG measured at 0.5 hrs LC-MS/MS analysis. The arrangement: time 0.5 hrs, dose 30 mg/kg, route ig. Format: ADME, organism-based. The following applies: in vivo, po.
Data set [22] is described as follows: Cmax in Sprague-Dawley rat at 5 mg/kg, IG measured upto 24 hrs by LC-MS/MS analysis. It is filed as ADME, organism-based. Also on record: time < 24 hrs, dose 5 mg/kg, route ig. The following applies: in vivo, po.
The test system of data set [23] is Human immunodeficiency virus 1. The data set can be described thus: Antiviral activity against HIV1 A17 infected in human C8166 cells assessed as inhibition of viral replication by measuring reduction in p24 antigen level incubated for 3 to 7 days by ELISA analysis. The following applies: Human immunodeficiency virus 1, A17, C8166. It is filed as functional, organism-based.

The subject of data set [24] is Human immunodeficiency virus 1. The data set can be described thus: Antiviral activity against HIV1 WAN infected in human PBMC assessed as inhibition of viral replication by measuring reduction in p24 antigen level incubated for 3 to 7 days by ELISA analysis. Format: functional, organism-based. The following applies: Human immunodeficiency virus 1, WAN.

Bounds are passed on as bounds.

On to `C#C[C@]1(CO)O[C@@H](n2cnc3c(N)nc(F)nc32)[C@@H](F)[C@@H]1O`, for which the AUC(0-t) (commonly the area under the concentration-time curve up to a stated or last time point) at 24 h was 8.15 µg·h/mL in data set [1], 1.72 µg·h/mL in [3], 5.29 µg·h/mL in [14] and 82.5 µg·h/mL in data set [18]. The EC50 – broadly, the concentration that produces a half-maximal response – in data set [2] was determined as 1.22 nM; in data set [6], 6.3 nM; in data set [13], 0.9 nM; in data set [15], 6.75 nM; in [23] it was 1.53 nM; in data set [24] it was 14.4 nM. The Cmax (in general, the peak of the concentration-time curve) in data set [4] is 0.63 µg/mL; in data set [22], 1.23 µg/mL. For the same molecule, the results for the AUC(0-t) at 0.5 h in [5], in [8] and in [21] were 89.3 µg·h/mL, 28.2 µg·h/mL and 22.8 µg·h/mL, respectively. Moreover, the selectivity ratio in data set [7] is above 111000. In addition, the values for the CL/F in [9] and in [20] were 1.27 L/h/kg and 0.984 L/h/kg, respectively. Besides, the Activity result in [10], in data set [16], in [17] and in data set [19] was “Non-Toxic” in each case. For the same molecule, in [11], the half-life – broadly, how long it takes for the measured level to halve – was 2.3 h. The bioavailability – broadly, dose-corrected exposure relative to a reference, in per cent – in [12] is 64.2%.
